Assay results reported in patent US10278999B2, “Synthesis of Nuxia oppositifolia nanoparticles” (KING SAUD UNIVERSITY, priority 2017, dated 2019).

Key:
Test in all cases: Antimicrobial activity, agar diffusion technique
Assay type in all cases: cell-based
Details in all cases: mean ± S.D. beyond well diameter (6 mm), 100 μl of samples
[1] = tested on: Salmonella enteritidis (RCMB 010084)
Experimental: (§1) The antimicrobial effect of N. oppositifolia nanoparticles synthesized according to Example 1 were evaluated against gram positive bacteria, gram negative bacteria, as well as fungi.
(§2) The antimicrobial effect of N. oppositifolia nanoparticles synthesized according to Example 2 were evaluated against gram positive bacteria, gram negative bacteria, as well as fungi.

[2] = tested on: Proteous vulgaris (RCMB 010085)
Experimental: as §1, §2

[3] = tested on: Klebsiella pneumoniae (RCMB 0010093)
Experimental: as §1, §2

[4] = tested on: Geotricum candidum (RCMB 05097)
Experimental: as §1, §2

[5] = tested on: Absidia corymbifera (RCMB 02564)
Experimental: as §1, §2

[6] = tested on: Candida albicans (RCMB 05036)
Experimental: as §1, §2

[7] = tested on: Streptococcus pyogenes (RCMB 010015)
Experimental: as §1, §2

[8] = tested on: Staphylococcus epidermidis (RCMB 010024)
Experimental: as §1, §2

With Gentamycin the “Zone of Inhibition (±SD)” value [1] was 25.2 ± 0.18 mm, the “Zone of Inhibition (±SD)” value [2] was 23.4 ± 0.30 mm and the “Zone of Inhibition (±SD)” value [3] was 26.4 ± 0.15 mm.

For C[C@@H]1[C@H](O)[C@@H](C)/C=C/C=C/C=C/C=C/C=C/C=C/C=C/[C@H](O[C@@H]2O[C@H](C)[C@@H](O)[C@H](N)[C@@H]2O)C[C@@H]2O[C@](O)(C[C@@H](O)C[C@@H](O)[C@H](O)CC[C@@H](O)C[C@@H](O)CC(=O)O[C@H]1C)C[C@H](O)[C@H]2C(=O)O [Amphotericin B], the “Zone of Inhibition (±SD)” value [4] was 27.0 ± 0.20 mm, the “Zone of Inhibition (±SD)” value [5] was 23.0 ± 0.10 mm and the “Zone of Inhibition (±SD)” value [6] was 25.7 ± 0.10 mm.

With CC1(C)S[C@@H]2[C@H](NC(=O)[C@H](N)c3ccccc3)C(=O)N2[C@H]1C(=O)O [Ampicillin] the “Zone of Inhibition (±SD)” value [7] was 26.3 ± 0.34 mm and the “Zone of Inhibition (±SD)” value [8] was 25.0 ± 0.18 mm.
